What was measured:
[1] = system: SBC-3 (Small Cell Lung Carcinoma); assay: Bliss excess, mean over the matrix (fraction); higher = more synergy
How it was run: (§1)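 Cell lines in DMEM/F12 or RPMI with 10% FBS were plated in 1536-well plates, held 24 hours at 37°C, 5% CO2, then given two-drug dose matrices for 72 hours (DMSO typically 0.2%). Viability was read by CellTiter-Glo 2.0 luminescence and scaled as inhibition from 0 (vehicle wells) to 1 (blank wells). Combination Emax is the second-highest inhibition in the matrix; Bliss excess is observed combination effect minus expected EA + EB − EA·EB, EA and EB being single-agent effects.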

[2] = system: NCI-H1648 (Lung Adenocarcinoma); assay: as above
How it was run: as §1

[3] = system: KNS-62 (Squamous Cell Lung Carcinoma); assay: as above
How it was run: as §1

[4] = system: L-363 (Plasma Cell Myeloma); assay: as above
How it was run: as §1

[5] = system: NTERA-2-cl-D1 (Other Solid Carcinomas); assay: as above
How it was run: as §1

[6] = system: SW1463 (Colorectal Carcinoma); assay: as above
How it was run: as §1

[7] = system: NCI-H2009 (Lung Adenocarcinoma); assay: as above
How it was run: as §1

C32 (Melanoma) [8] = assay: as above
How it was run: as §1

[9] = system: NCI-H835 (Other Solid Carcinomas); assay: as above
How it was run: as §1

GCIY (Gastric Carcinoma) [10] = assay: as above
How it was run: as §1

[11] = system: MRK-nu-1 (Breast Carcinoma); assay: as above
How it was run: as §1

[12] = system: CAL-85-1 (Breast Carcinoma); assay: as above
How it was run: as §1

[13] = system: COR-L105 (Lung Adenocarcinoma); assay: as above
How it was run: as §1

[14] = system: BC-1 (B-Cell Non-Hodgkin's Lymphoma); assay: as above
How it was run: as §1

MG-63 (Osteosarcoma) [15] = assay: as above
How it was run: as §1

[16] = system: RPMI-8402 (T-Lymphoblastic Leukemia); assay: as above
How it was run: as §1

SK-MEL-24 (Melanoma) [17] = assay: as above
How it was run: as §1

[18] = system: OVKATE (Ovarian Carcinoma); assay: as above
How it was run: as §1

[19] = system: NCI-H2023 (Non-Small Cell Lung Carcinoma); assay: as above
How it was run: as §1

[20] = system: MDA-MB-175-VII (Breast Carcinoma); assay: as above
How it was run: as §1

NCI-H2452 (Mesothelioma) [21] = assay: as above
How it was run: as §1

A375 (Melanoma) [22] = assay: as above
How it was run: as §1

[23] = system: NCI-H1435 (Non-Small Cell Lung Carcinoma); assay: as above
How it was run: as §1

[24] = system: SBC-3 (Small Cell Lung Carcinoma); assay: combination Emax (second highest fraction inhibited in the dose matrix, 72 h); higher = more inhibition; extreme values may be limits of the assay
How it was run: as §1

[25] = system: NCI-H1648 (Lung Adenocarcinoma); assay: as above
How it was run: as §1

[26] = system: KNS-62 (Squamous Cell Lung Carcinoma); assay: as above
How it was run: as §1

[27] = system: L-363 (Plasma Cell Myeloma); assay: as above
How it was run: as §1

[28] = system: NTERA-2-cl-D1 (Other Solid Carcinomas); assay: as above
How it was run: as §1

[29] = system: SW1463 (Colorectal Carcinoma); assay: as above
How it was run: as §1

[30] = system: NCI-H2009 (Lung Adenocarcinoma); assay: as above
How it was run: as §1

C32 (Melanoma) [31] = assay: as above
How it was run: as §1

[32] = system: NCI-H835 (Other Solid Carcinomas); assay: as above
How it was run: as §1

GCIY (Gastric Carcinoma) [33] = assay: as above
How it was run: as §1

[34] = system: MRK-nu-1 (Breast Carcinoma); assay: as above
How it was run: as §1

[35] = system: CAL-85-1 (Breast Carcinoma); assay: as above
How it was run: as §1

[36] = system: COR-L105 (Lung Adenocarcinoma); assay: as above
How it was run: as §1

[37] = system: BC-1 (B-Cell Non-Hodgkin's Lymphoma); assay: as above
How it was run: as §1

MG-63 (Osteosarcoma) [38] = assay: as above
How it was run: as §1

[39] = system: RPMI-8402 (T-Lymphoblastic Leukemia); assay: as above
How it was run: as §1

SK-MEL-24 (Melanoma) [40] = assay: as above
How it was run: as §1

[41] = system: OVKATE (Ovarian Carcinoma); assay: as above
How it was run: as §1

[42] = system: NCI-H2023 (Non-Small Cell Lung Carcinoma); assay: as above
How it was run: as §1

[43] = system: MDA-MB-175-VII (Breast Carcinoma); assay: as above
How it was run: as §1

NCI-H2452 (Mesothelioma) [44] = assay: as above
How it was run: as §1

A375 (Melanoma) [45] = assay: as above
How it was run: as §1

[46] = system: NCI-H1435 (Non-Small Cell Lung Carcinoma); assay: as above
How it was run: as §1
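For Bliss excess, mean over the matrix in this document: after 72 h of two-drug dosing.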

## Cc1c2c(nn1C)CSCc1cc(n(C)n1)CSc1cc(c3ccccc3c1)OCCCc1c(C(=O)O)n(C)c3c-2c(Cl)ccc13 [AZD5991] + Nc1ccn([C@@H]2O[C@H](CO)[C@@H](O)C2(F)F)c(=O)n1 [Gemcitabine] (first compound max 1 µM, 7x7, partner max 0.3 µM)
[1]
  Bliss excess: 0.0059
[2]
  Bliss excess: -0.0061
[3]
  Bliss excess: -0.009
[4]
  Bliss excess: 0.0938
[5]
  Bliss excess: -0.0695
[6]
  Bliss excess: -0.0715
[7]
  Bliss excess: -0.0361
C32 (Melanoma) [8]
  Bliss excess: -0.0117
[9]
  Bliss excess: 0.0842
GCIY (Gastric Carcinoma) [10]
  Bliss excess: 0.0091
[11]
  Bliss excess: 0.0571
[12]
  Bliss excess: -0.027
[13]
  Bliss excess: 0.0042
[14]
  Bliss excess: 0.033
MG-63 (Osteosarcoma) [15]
  Bliss excess: -0.071
[16]
  Bliss excess: 0.0264
SK-MEL-24 (Melanoma) [17]
  Bliss excess: -0.0245
[18]
  Bliss excess: -0.0373
[19]
  Bliss excess: -0.0707
[20]
  Bliss excess: 0.0148
NCI-H2452 (Mesothelioma) [21]
  Bliss excess: -0.0642
A375 (Melanoma) [22]
  Bliss excess: 0.0115
[23]
  Bliss excess: -0.0706
[24]
  combination Emax: 0.962
[25]
  combination Emax: 0.5
[26]
  combination Emax: 0.413
[27]
  combination Emax: 0.999
[28]
  combination Emax: 0.536
[29]
  combination Emax: 0.516
[30]
  combination Emax: 0.487
C32 (Melanoma) [31]
  combination Emax: 0.762
[32]
  combination Emax: 0.42
GCIY (Gastric Carcinoma) [33]
  combination Emax: 0.649
[34]
  combination Emax: 1
[35]
  combination Emax: 0.558
[36]
  combination Emax: 0.377
[37]
  combination Emax: 1
MG-63 (Osteosarcoma) [38]
  combination Emax: 0.82
[39]
  combination Emax: 1
SK-MEL-24 (Melanoma) [40]
  combination Emax: 0.758
[41]
  combination Emax: 0.165
[42]
  combination Emax: 0.612
[43]
  combination Emax: 0.48
NCI-H2452 (Mesothelioma) [44]
  combination Emax: 0.319
A375 (Melanoma) [45]
  combination Emax: 0.961
[46]
  combination Emax: 0.317

## Cc1c2c(nn1C)CSCc1cc(n(C)n1)CSc1cc(c3ccccc3c1)OCCCc1c(C(=O)O)n(C)c3c-2c(Cl)ccc13 [AZD5991] + CC(=O)O[C@H]1C(=O)[C@@]2(C)[C@H]([C@H](OC(=O)c3ccccc3)[C@]3(O)C[C@H](OC(=O)[C@H](O)[C@@H](NC(=O)c4ccccc4)c4ccccc4)C(C)=C1C3(C)C)[C@]1(OC(C)=O)CO[C@@H]1C[C@@H]2O [Paclitaxel] (first compound max 1 µM, 7x7, partner max 3 µM)
[1]
  Bliss excess: -0.0404
[2]
  Bliss excess: -0.0144
[3]
  Bliss excess: -0.0159
[4]
  Bliss excess: -0.0043
[5]
  Bliss excess: 0.111
[6]
  Bliss excess: 0.0763
[7]
  Bliss excess: 0.0027
C32 (Melanoma) [8]
  Bliss excess: 0.0017
[9]
  Bliss excess: 0.0252
GCIY (Gastric Carcinoma) [10]
  Bliss excess: -0.0262
[11]
  Bliss excess: 0.0286
[12]
  Bliss excess: -0.0082
[13]
  Bliss excess: -0.0367
[14]
  Bliss excess: -0.0329
MG-63 (Osteosarcoma) [15]
  Bliss excess: -0.0715
[16]
  Bliss excess: 0.0139
SK-MEL-24 (Melanoma) [17]
  Bliss excess: -0.0449
[18]
  Bliss excess: -0.0107
[19]
  Bliss excess: 0.0058
[20]
  Bliss excess: 0.102
NCI-H2452 (Mesothelioma) [21]
  Bliss excess: 0.0378
A375 (Melanoma) [22]
  Bliss excess: -0.0149
[23]
  Bliss excess: 0.0254
[24]
  combination Emax: 0.952
[25]
  combination Emax: 0.929
[26]
  combination Emax: 0.6
[27]
  combination Emax: 1
[28]
  combination Emax: 0.614
[29]
  combination Emax: 0.527
[30]
  combination Emax: 0.715
C32 (Melanoma) [31]
  combination Emax: 0.654
[32]
  combination Emax: 0.453
GCIY (Gastric Carcinoma) [33]
  combination Emax: 0.686
[34]
  combination Emax: 1
[35]
  combination Emax: 0.806
[36]
  combination Emax: 0.183
[37]
  combination Emax: 1
MG-63 (Osteosarcoma) [38]
  combination Emax: 0.88
[39]
  combination Emax: 1
SK-MEL-24 (Melanoma) [40]
  combination Emax: 0.692
[41]
  combination Emax: 0.217
[42]
  combination Emax: 0.537
[43]
  combination Emax: 0.505
NCI-H2452 (Mesothelioma) [44]
  combination Emax: 0.838
A375 (Melanoma) [45]
  combination Emax: 0.787
[46]
  combination Emax: 0.219

From the supplement of paper PMC11061612
